Where “and” joins values, the source holds several entries; their conditions need not be identical. Equal values may be shown once. Read-outs that look alike come from different tables or passages of the source.
Experiments:
[1] = test system: subjects with heart failure; experiment: Echocardiography substudy in heart failure subjects; assay type: in vivo, human
Procedure: An echocardiography substudy was conducted to examine the impact of h-SCP (SEQ ID NO:1) on cardiodynamic parameters. Five subjects elected to participate in the echocardiography substudy. One subject received placebo and 4 subjects received h-SCP (SEQ ID NO:1) at doses ranging from 9 to 45 ng/kg/min during their last 2.5-hour infusion period when the echocardiogram was obtained. […] Because of the small number of subjects who participated in this substudy and the varied dose administered the results are not conclusionary, but mainly indicative of the effect.

[2] = test system: Langendorff perfused rabbit heart; experiment: Retrograde-perfused Langendorff rabbit heart assay; conditions: bolus into the perfusion block
Procedure: The effect of h-SCP (SEQ ID NO:1) on heart rate (HR), left ventricular (LV) contraction, and vascular tone was assessed in a retrograde-perfused Langendorff rabbit heart assay.

[3] = test system: anaesthetized male Sprague-Dawley rats; experiment: Hemodynamics in anaesthetized rats (IV bolus); assay type: in vivo, rat; conditions: IV bolus 0.13 μg/kg to 44 μg/kg
Procedure: The hemodynamic profile of h-SCP (SEQ ID NO:1) was determined in sodium pentobarbital anaesthetized male Sprague-Dawley rats (FIG. 10). A SPR-320 Mikro-Tip® integrated catheter-tipped micro-manometer (Millar Instruments, Houston, Tex., U.S.A.) was placed in the right femoral artery for blood pressure measurements, and another one directly in the left ventricle for LV pressure measurement. […] The changes in hemodynamic parameters induced by h-SCP (SEQ ID NO:1, full circle in FIG. 10) were blocked by pretreatment with anti-sauvagine-30 (SEQ ID NO:118, open circle in FIG. 10).

[4] = test system: dogs with advanced heart failure; experiment: LV pressure-volume relationship in dogs with advanced heart failure, 120-min infusion; assay type: in vivo, dog; conditions: HF dogs
Procedure: In a subsequent study baseline hemodynamic, ventriculographic, echocardiographic and LV pressure-volume was measured, before each dog was intravenously administered a continuous, 4.3 ng/kg/min infusion of h-SCP (SEQ ID NO:1) for 120 min. At the end of the 120-min infusion, complete hemodynamic, ventriculographic, echocardiographic, and LV pressure-volume measurements were repeated. Lead II on the electrocardiogram was monitored throughout the study for development of de novo ventricular arrhythmias. The dosing solutions were not adjusted or corrected for peptide content since the peptide content of the test article used in these studies fell between the customary 85-90% limit where this correction is not required. […]
All hemodynamic measurements were made during left and right heart catheterizations in anaesthelized dogs at each specified study time point. Aortic and LV pressures were measured using cathetenip micromanometers (Millar Instruments, Houston, Tex.), and LV end-diastolic pressure (LVEDP) was measured from the LV pressure waveform. […] Ventriculography were recorded on digital media at 30 frames per second during a power injection of 15 mL of contrast material (Conray; Mallinckrodt Inc., St. Louis, Mo.). […] The end-systolic and end-diastolic pressure-volume points were determined for beats at end-expiration in the usual fashion. […]

H-TKFTLSLDVPTNIMNLLFNIAKAKNLRAQAAANAHLMAQI-NH2 [SEQ ID NO: 1, TKFTLSLDVPTNIMNLLFNIAKAKNLRAQAAANAHLMAQI-NH2]
ejection fraction after infusion ([1]; one subject, 9 ng/kg/min, from 20%): 24.5% | ejection fraction after infusion ([1]; one subject, 36 ng/kg/min, from 25.0%): 30.3% | ejection fraction after infusion ([1]; two subjects, 45 ng/kg/min, from 36.0% and from 28.0%, listed as h-SCP): 34.7% and 26.1% | EC50 ([2]; read-out: concentration for 50% response, decrease in coronary perfusion pressure (CPP)): 46 nM | EC50 ([2]; read-out: concentration for 50% response, increase in heart rate): 52 nM | EC50 ([2]; read-out: concentration for 50% response, increase in left ventricular developed pressure (dP/dtmax)): 9.9 nM | hemodynamic profile [3]: dose-dependent increases in heart rate, LV developed pressure (+dP/dt), and a corresponding decrease in blood pressure | absolute value of EDPVR slope ([4]; 4.3 ng/kg/min infusion for 120 min (untreated 0.257)): 0.128 | slope of the ESPVR ([4]; 4.3 ng/kg/min infusion for 120 min (untreated 1.38±0.26)): 2.26±0.46
